According to patent US20200197392A1, “COMPOSITIONS AND METHODS FOR TREATING TUBEROUS SCLEROSIS COMPLEX” (THE BRIGHAM & WOMEN'S HOSPITAL, INC., priority 2017, published 2020):
Like-named read-outs stand apart in the source and are kept apart here.

Tests used:
[1] = tested on: HCV29 cells; details: 30 nM THZ1, 1 mM GSH
[2] = tested on: TSC-null cells; assay: Antioxidant rescue of THZ1-induced cell death (Trypan blue); assay type: cell-based; details: THZ1 30 nM, NAC 2 mM or GSH-MEE 2 mM, 48 hr
Excerpt: (§1) FIGS. 8A-8G. Reduction of glutathione and increase in ROS in THZ1-treated TSC null cells. […] Arrow indicates glutathione. (n=3 samples) (FIG. 8B) Heat map showing the top 15 metabolites with greatest change in 621.101.TSC2− cells, with comparison to control and similarly-treated 621.101.TSC2-addback cells (n=3 samples). The scale is log 2 fold-change. […] Each data point represents the mean±SEM of three independent experiments (** p<0.01; *** p<0.001). […] Each data point represents the mean±SEM of three independent experiments (* p<0.05; ** p<0.01; *** p<0.001). […] Phase contrast images are at top. Cell death (%) is shown at bottom for these treatments as well as RAP (rapamycin 20 nM) and NAC (2 mM) for HCV.29.TSC1− and 621-101.TSC2− after 48 hours of treatment, measured by Trypan blue staining. Each data point represents the mean±SEM of three independent experiments (* p<0.05; ** p<0.01; *** p<0.001).
FIGS. 9A-9C. […] (n=3 samples,*** p<0.0005). […] Each data point represents the mean±SEM of three independent experiments (** p<0.01; *** p<0.001). (FIG. 9C) Cell death of MEF.TSC2− after 48 hours of treatment with indicated compounds was measured via Trypan blue staining assay. Each data point represents the mean±SEM of three independent experiments (* p<0.05; *** p<0.001). […]

[3] = tested on: TSC-null cells; assay: ROS levels in TSC-null cells; assay type: cell-based; details: NAC 2 mM + THZ1 30 nM, 48 hr
Excerpt: as §1
As GSH is the major intracellular antioxidant […], reactive oxygen species (ROS) were next measured in these cells.
In addition, to examine whether glutathione depletion was the proximate cause of apoptosis in THZ1-treated TSC-null cells, cells were treated with GSH reduced ethyl ester (GSH-MEE), a membrane-permeable derivative of GSH.

[4] = tested on: tumors in a TSC mouse model; assay: SY-1365 in a TSC mouse model; assay type: in vivo; details: tail vein injection 2×/week at 40 mg/kg for 4 weeks
Protocol: FIG. 16. Effect of SY-1365 on tumor volume in a TSC mouse model. SY-1365 was administered by tail vein injection 2×/week at 40 mg/kg for 4 weeks. Mice were then sacrificed and tumor assessment performed based on histology.

[5] = compared to THZ1; cited from earlier work
[6] = biological target: T1, CDK7 (Homo sapiens, UniProt P50613); details: read-out: cellular IC50; cited from earlier work
[7] = biological target: T1, CDK7; details: cited from earlier work
[8] = tested on: TSC1-HCV29 cells; assay: Apoptosis by flow cytometry, propidium iodide and Annexin V; assay type: cell-based, human; details: 30 nM, 72 h
Excerpt: (§2) FIGS. 2A-2B. […] Apoptosis was monitored by flow cytometry using FITC-Annexin V. Each data point represents the mean±SEM of three independent experiments. *** p<0.001 (FIG. 2B) Immunoblot analyses of caspase-3 and actin.

[9] = tested on: HCV29 cells; assay: as above; assay type: cell-based, human; details: 30 nM, 72 h
Excerpt: as §2

[10] = tested on: HCV29 xenograft tumors; assay: HCV29 xenograft tumors in Foxn1nu mice (Example 1); assay type: in vivo; details: 10 mg/kg IP twice daily, 30 days
Excerpt: FIG. 3. […] Treatment groups are indicated. […] Caliper measurements were used to calculate tumor volume.
HCV29 xenograft tumors were induced in immune-deficient Foxn1^nu mice by injection of 10^7 cells into each flank. […] Tumor size was monitored using calipers.

[11] = tested on: TSC null cells; assay: NRF2, GCLC, GCLM, GSR protein expression; assay type: cell-based; details: 24 hours after THZ1 treatment
[12] = tested on: HCV29 cells; assay: Steady state metabolite analysis; assay type: cell-based, human; details: 30 nM, 48 h
[13] = tested on: HCV29 cells; assay: ROS levels; assay type: cell-based, human; details: THZ1 30 nM, rapamycin 20 nM or both
[14] = tested on: TSC-addback cell lines; assay: 96 well plate growth assay, TSC-addback cell lines; assay type: cell-based; details: 120 h, 6 cell line pairs, 5 days
Protocol: (§3) FIGS. 4A-4F. […] Cell number was calculated by measurement of dsDNA content using PicoGreen after 5 days in 96-well plate assays. Each data point represents the mean of 4 measurements. SEM are indicated. […] Apoptotic cell death was quantified by propidium iodide (PI) staining and flow cytometry, and is shown as the percentage of cells that were PI positive. Each data point represents the mean±SEM of three independent experiments. * p<0.05; ** p<0.01; *** p<0.001. […] Beta-actin serves as a loading control.
(§4) FIGS. 5A-5D. […] Beta-actin serves as a loading control. […] Apoptotic cells were quantified by propidium iodide (PI) staining and flow cytometry. Each data point represents the mean±SEM of three independent experiments. * p<0.05; ** p<0.01; *** p<0.001. […] Beta-actin serves as a loading control.

[15] = tested on: HCV29 cells; assay: RNA-Seq gene expression, HCV29 vs TSC1-HCV29; assay type: cell-based, human; details: 30 nM THZ1-treated HCV29 vs THZ1-treated TSC1-HCV29, 6 hours
Excerpt: However, the inventors focused on expression of all genes involved in the synthesis of reduced glutathione.

[16] = tested on: kidney cystadenomas in Tsc2+/− A/J strain mice; details: THZ1 10 mg/kg IP twice a day 29 days; rapamycin 3 mg/kg 3 times per week
Excerpt: FIGS. 12A-12F. […] (FIG. 12A) Experimental plan. Tsc2+/− A/J strain mice develop kidney cystadenomas with 100% penetrance by 4 months of age with progressive tumor development. […] (FIG. 12B) Number of tumors per kidney in each treatment group (n=kidney number). ***p<0.001. (FIG. 12C) Tumor volume per kidney, with each data point corresponding to one kidney. (FIG. 12D) Renal cystadenoma histology in the treated mice. Representative tumor images are shown for each treatment cohort. Cystadenomas and tumors each are shown at 100×. […] (FIG. 12E) Ki-67 staining to assess cell proliferation in kidney sections from the treated mice. All images are at 100× magnification. Percentage of tumor cells with nuclear immunoreactivity of Ki-67 was scored from six random fields per section. ***p<0.001.
FIGS. 13A-13B. […]
Tsc2+/− A/J strain mice develop kidney cystadenomas by 4 months of age, and provide a native in vivo model that is […] human TSC patients, and is driven by spontaneous second hit events that lead to complete loss of Tsc2 expression and mTORC1 activation (Auricchio et al., 2012; Guo and Kwiatkowski, 2013; Woodrum et al., 2010). […] Rapamycin was dramatically effective in reducing tumor volume by about 99%, as assessed semi-quantitatively on H&E-stained sections (FIG. 12C), similar to what we have seen previously (Guo and Kwiatkowski, 2013). […]

[17] = tested on: TSC-null cell lines; assay: 96 well plate growth assay, TSC-null cell lines; assay type: cell-based; details: 120 h, 6 cell line pairs, 5 days
Protocol: as §3, §4

[18] = tested on: TSC1-HCV29 cells; assay: Cell cycle flow cytometry; assay type: cell-based, human; details: 30 nM, 24 h
[19] = tested on: HCV29 cells; assay: Cell cycle flow cytometry; assay type: cell-based, human; details: 30 nM, 24 h
[20] = tested on: HCV29 cells (TSC1 null bladder cancer cell line); assay: 96-well plate proliferation assay (PicoGreen dsDNA); assay type: cell-based; details: Homo sapiens, HCV-29, 96 h; HCV29, 4 days; read-out: IC50, inhibition of proliferation
Protocol: (§5) FIG. 1. THZ1 selectively targets TSC-deficient cells. […] Cell viability was assessed after 4 days of treatment using Quant-it PicoGreen dsDNA. Data is represented as mean±SD.
(§6) Multiple studies were performed that support these hypotheses. Most studies to date have been performed on two pairs of cell lines: (i) HCV29, a TSC1 null human bladder cancer cell line, and a corresponding TSC1 addback derivative (TSC1-HCV29), and (ii) 621-101, a TSC2 null angiomyolipoma cell line, and the TSC2 addback derivative […].

[21] = tested on: 621-101 cells (TSC2 null angiomyolipoma cell line); assay: as above; assay type: cell-based; details: 96 h; 621-101, 4 days; read-out: IC50, inhibition of proliferation
Protocol: as §5, §6

[22] = tested on: HCV.29-TSC1− xenograft tumors; assay: HCV29-TSC1- xenograft model (Example 2); assay type: in vivo, mice; details: THZ1 10 mg/kg IP twice a day, rapamycin 3 mg/kg IP 3 days per week, or both
Protocol: FIGS. 14A-14D. […] Tumor size was measured every 3rd day using a digital caliper. […] This was quantified by counting four to six random fields per section. Scale bar=50 μm. **p<0.01, ***p<0.001. […] This was quantified by counting four to six random fields per section. Scale bar 50 μm. not shown (n=6) ***p<0.001. (FIG. 14D) Diagram showing glutathione synthetic pathway and ROS generation in TSC mutant cells. Top, TSC-deficient cells have hyperactive mTORC1, leading to increased ROS, NRF2 induction, and an increase in transcription of glutathione synthetic genes to yield more glutathione to buffer the increased ROS.
FIGS. 15A-15C. (FIG. 15A) Average body weight of TSC1-deficient HCV.29 xenograft mice in each treatment group. […] (n=4 tumors per group). ***p<0.001.
Tumor volumes were measured by calipers. […] Finally, in a cohort of xenograft mice, the treatments were discontinued and tumor growth was observed without intervention after the one month of treatment.

T1 sequence (P50613 whole entry): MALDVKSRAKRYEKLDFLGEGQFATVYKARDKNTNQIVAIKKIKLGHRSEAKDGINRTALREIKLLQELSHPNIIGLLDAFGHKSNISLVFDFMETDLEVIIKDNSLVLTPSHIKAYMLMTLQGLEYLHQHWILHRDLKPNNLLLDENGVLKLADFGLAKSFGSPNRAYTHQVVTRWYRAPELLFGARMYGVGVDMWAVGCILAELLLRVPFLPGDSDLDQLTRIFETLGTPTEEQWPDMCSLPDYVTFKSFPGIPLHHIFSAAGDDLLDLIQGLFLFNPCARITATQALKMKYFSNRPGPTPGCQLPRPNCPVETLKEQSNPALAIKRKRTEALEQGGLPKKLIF
T1 sequence (P51946 whole entry partner): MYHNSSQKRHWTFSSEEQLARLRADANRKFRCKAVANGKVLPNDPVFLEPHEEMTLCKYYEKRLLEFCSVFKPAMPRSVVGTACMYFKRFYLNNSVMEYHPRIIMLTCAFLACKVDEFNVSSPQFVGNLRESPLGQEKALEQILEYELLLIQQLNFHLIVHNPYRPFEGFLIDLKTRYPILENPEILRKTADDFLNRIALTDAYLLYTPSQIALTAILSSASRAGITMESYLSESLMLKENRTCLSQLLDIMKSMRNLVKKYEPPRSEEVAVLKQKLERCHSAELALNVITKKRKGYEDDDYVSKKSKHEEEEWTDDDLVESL
T1 sequence (P51948 whole entry partner): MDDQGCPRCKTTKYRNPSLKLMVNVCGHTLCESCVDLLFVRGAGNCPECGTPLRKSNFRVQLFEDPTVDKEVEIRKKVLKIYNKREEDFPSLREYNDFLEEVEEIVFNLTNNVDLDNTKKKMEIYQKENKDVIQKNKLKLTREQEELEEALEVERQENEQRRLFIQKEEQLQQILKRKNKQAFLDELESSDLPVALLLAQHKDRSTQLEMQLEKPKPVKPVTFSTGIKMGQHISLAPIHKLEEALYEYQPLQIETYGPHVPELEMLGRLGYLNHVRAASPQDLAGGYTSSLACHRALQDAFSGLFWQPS

With `N[C@@H](CCC(=O)N[C@@H](CS)C(=O)NCC(=O)O)C(=O)O` [GSH, glutathione] the “THZ1-induced HCV29 cell death with GSH co-treatment” value [1] was “markedly reduced”.

For `CCOC(=O)CNC(=O)[C@H](CS)NC(=O)CC[C@H](N)C(=O)O` [GSH-MEE, GSH reduced ethyl ester], the “cell death / viability of THZ1-treated TSC-null cells with co-treatment” value [2] was “rescued the viability”.

In the case of `CC(=O)N[C@@H](CS)C(=O)O` [NAC, N-acetyl-cysteine], the “cell death / viability of THZ1-treated TSC-null cells with co-treatment” value [2] is reported as “significantly reduced the cell death” and the “ROS levels in THZ1 treated TSC-null cells with antioxidant” value [3] is reported as “restored ROS levels to near baseline”.

In the case of `CN(C)C/C=C/C(=O)Nc1ccc(C(=O)N[C@@]2(C)CCC[C@@H](Nc3ncc(Cl)c(-c4c[nH]c5ccccc45)n3)C2)nc1` [SY-1365], the “reduction in tumor volume (semi-quantitative, histology)” value [4] is listed as 99%, the pharmacokinetic properties [5] is listed as “improved pharmacokinetic properties compared to THZ1” and the IC50 [6] is listed as about 20 nM. For the same molecule, the “selectivity for CDK7 over other CDKs (e.g., CDK9)” value [7] was “high selectivity for CDK7 over other CDKs” and the IC50 ([7]; read-out: enzymatic IC50) was about 22 nM.

For `CN(C)C/C=C/C(=O)Nc1ccc(C(=O)Nc2cccc(Nc3ncc(Cl)c(-c4c[nH]c5ccccc45)n3)c2)cc1` [THZ1], the “Annexin V+ cells” value [8] was 2%, the “Annexin V+ cells” value [9] was 37% and the “body weight and apparent toxicities” value [10] was “did not affect body weight or cause other apparent toxicities”. The “reduction in expression of each protein (NRF2, GCLC, GCLM, GSR)” value [11] was over 90%, the “Glutathione disulfide (GSS) levels reduced” value [12] was 65% and the “S-adenosyl-L-homocysteine reduction in levels” value [12] was 87%. For the same molecule, the “glutathione (GSH) reduction in levels” value [12] was 78%, the ROS levels increase [13] was 2.5 fold and the IC50 ([14]; read-out: IC50 range, addback lines) was 190 to 660 nM. For the same molecule, the IC50 ([14]; read-out: median IC50, addback lines) was 475 nM, the “GCLC mRNA levels reduction” value [15] was 82% and the “GCLM mRNA levels reduction” value [15] was 68%. The “GSR mRNA levels reduction” value [15] was 86%, the “reduction of tumor volume (semi-quantitative, H&E sections)” value [16] was “about 99%” and the IC50 ([17]; read-out: IC50 range, TSC-null cell lines) was 16 to 39 nM. The IC50 ([17]; read-out: median IC50, TSC-null cell lines) was 26.5 nM, the “cells arrested in G2/M-phase” value [18] was 5.5% and the “cells arrested in G2/M-phase” value [19] was 21%. For the same molecule, the IC50 [20] was about 30 nM, the IC50 [21] was about 30 nM and the “body weight and toxicity” value [22] was “No effect on body weight or other evidence of toxicity”.

With `CO[C@H]1C[C@@H]2CC[C@@H](C)[C@@](O)(O2)C(=O)C(=O)N2CCCC[C@H]2C(=O)O[C@H]([C@H](C)C[C@@H]2CC[C@@H](O)[C@H](OC)C2)CC(=O)[C@H](C)/C=C(\C)[C@@H](O)[C@@H](OC)C(=O)[C@H](C)C[C@H](C)/C=C/C=C/C=C/1C` [rapamycin] the “reduction of tumor volume (semi-quantitative, H&E sections)” value [16] was “about 99%” and the “body weight and toxicity” value [22] was “No effect on body weight or other evidence of toxicity”.
